The subject of the assay is VA-ES-BJ. Put plainly: relative viability vs DMSO control (72 h) (fraction); higher = more viable cells. The procedure, abridged:
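Percent growth from ATPLite readings, averaged over up to triplicate wells, was used as relative viability. Sarcoma cell lines were seeded into 384-well plates for 80–90% confluence, dosed after 24 h, and kept 72 h at 37 °C, 5% CO2. Data were rescaled to a range where 1 is full and 0 is none.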

Each structure is given as a SMILES string. Where a name gives a salt, the structure may show the parent alone. ± gives the standard deviation of the averaged measurements.

Regarding `CCCS(=O)(=O)Nc1ccc(F)c(C(=O)c2c[nH]c3ncc(-c4ccc(Cl)cc4)cc23)c1F` [Vemurafenib], the relative viability (0.00017 µM) was 1.09 ± 0.048; the relative viability (0.00051 µM) came to 1.08 ± 0.058; the relative viability (0.00152 µM) worked out at 1.04 ± 0.063; the relative viability (0.00457 µM) is 1.06 ± 0.039; the relative viability (0.01372 µM) was 1.074 ± 0.0083; the relative viability (0.04115 µM) came out at 1.06 ± 0.042. Also, the relative viability stood at 1.09 ± 0.017 (0.1235 µM); 1.12 ± 0.056 (0.3704 µM); 1.12 ± 0.043 (1.111 µM); 1.02 ± 0.042 (3.333 µM); 0.769 ± 0.03 (10 µM).

`Cc1ccc(NC(=O)c2ccc(CN3CCN(C)CC3)cc2)cc1Nc1nc(-c2cccnc2)cs1` [Masitinib]: the relative viability runs as follows: (0.00017 µM) 1.08 ± 0.016; (0.00051 µM) 1.078 ± 0.0055; (0.00152 µM) 1.05 ± 0.019; (0.00457 µM) 1.06 ± 0.033; (0.01372 µM) 1.08 ± 0.022; (0.04115 µM) 1.05 ± 0.013. The relative viability (0.1235 µM) came out at 1.02 ± 0.024; the relative viability (0.3704 µM) was found to be 1.01 ± 0.038; the relative viability (1.111 µM) came to 0.897 ± 0.02; the relative viability (3.333 µM) came to 0.621 ± 0.016; the relative viability (10 µM) worked out at 0.177 ± 0.0072.

Regarding `Cc1cnc(Nc2ccc(OCCN3CCCC3)cc2)nc1Nc1cccc(S(=O)(=O)NC(C)(C)C)c1` [Fedratinib], the relative viability came to 1.06 ± 0.042 (0.00017 µM); 1.08 ± 0.013 (0.00051 µM); 1.03 ± 0.023 (0.00152 µM); 1.05 ± 0.021 (0.00457 µM); 1.04 ± 0.013 (0.01372 µM); 1 ± 0.037 (0.04115 µM). Besides, the relative viability was 1.02 ± 0.032 (0.1235 µM); 0.781 ± 0.018 (0.3704 µM); 0.403 ± 0.019 (1.111 µM); 0.152 ± 0.0076 (3.333 µM); -0.0115 ± 0.0047 (10 µM).

For the molecule `C[C@@H](c1ccc2nccn2c1)n1nnc2ncc(-c3cnn(C)c3)nc21` [Volitinib], the relative viability was 1.07 ± 0.067 (0.00017 µM); 1.07 ± 0.053 (0.00051 µM); 1.04 ± 0.062 (0.00152 µM); 1.02 ± 0.046 (0.00457 µM); 0.93 ± 0.043 (0.01372 µM); 0.868 ± 0.066 (0.04115 µM). The relative viability by setting is: (0.1235 µM) 0.875 ± 0.03; (0.3704 µM) 0.879 ± 0.058; (1.111 µM) 0.884 ± 0.048; (3.333 µM) 0.873 ± 0.042; (10 µM) 0.886 ± 0.048.

Consider `COc1cccc2c1C(=O)c1c(O)c3c(c(O)c1C2=O)C[C@@](O)(C(=O)CO)C[C@@H]3O[C@H]1C[C@H](N)[C@H](O)[C@H](C)O1` [Doxorubicin Hydrochloride], for which the relative viability (0.00017 µM) was determined as 1.03 ± 0.017; the relative viability (0.00051 µM) is 1.06 ± 0.08; the relative viability (0.00152 µM) was determined as 1.03 ± 0.05; the relative viability (0.00457 µM) amounted to 0.99 ± 0.033; the relative viability (0.01372 µM) was determined as 0.857 ± 0.064; the relative viability (0.04115 µM) is 0.629 ± 0.028. This molecule had a relative viability (0.1235 µM) of 0.386 ± 0.016; a relative viability (0.3704 µM) of 0.164 ± 0.012; a relative viability (1.111 µM) of 0.189 ± 0.0067; a relative viability (3.333 µM) of 0.143 ± 0.035; a relative viability (10 µM) of 0.126 ± 0.011.

In the case of `CCN1CCN(Cc2ccc(Nc3ncc(F)c(-c4cc(F)c5nc(C)n(C(C)C)c5c4)n3)nc2)CC1` [Abemaciclib], the relative viability is, setting by setting: (0.00017 µM) 1.02 ± 0.014; (0.00051 µM) 1.03 ± 0.0088; (0.00152 µM) 1.015 ± 0.0082; (0.00457 µM) 1 ± 0.019; (0.01372 µM) 0.994 ± 0.037; (0.04115 µM) 0.92 ± 0.042. Besides, the relative viability amounted to 0.779 ± 0.032 (0.1235 µM); 0.694 ± 0.018 (0.3704 µM); 0.681 ± 0.023 (1.111 µM); 0.562 ± 0.021 (3.333 µM); 0.427 ± 0.056 (10 µM).

Take `C=CC(=O)N1CCC([C@@H]2CCNc3c(C(N)=O)c(-c4ccc(Oc5ccccc5)cc4)nn32)CC1` [Zanubrutinib]: the relative viability (0.00017 µM) amounted to 1.02 ± 0.011; the relative viability (0.00051 µM) was 1.01 ± 0.012; the relative viability (0.00152 µM) was 1.01 ± 0.03; the relative viability (0.00457 µM) was found to be 0.996 ± 0.039; the relative viability (0.01372 µM) is 0.982 ± 0.029; the relative viability (0.04115 µM) was 1.04 ± 0.028. In addition, the relative viability (0.1235 µM) turned out to be 0.997 ± 0.047; the relative viability (0.3704 µM) came to 0.998 ± 0.054; the relative viability (1.111 µM) worked out at 0.95 ± 0.025; the relative viability (3.333 µM) is 0.912 ± 0.048; the relative viability (10 µM) amounted to 0.836 ± 0.013.

Regarding `COc1cc2/c(=N/c3ccc(Br)cc3F)nc[nH]c2cc1OCC1CCN(C)CC1` [Vandetanib], the relative viability reads like this: (0.00017 µM) 1.04 ± 0.044; (0.00051 µM) 1.04 ± 0.027; (0.00152 µM) 1.03 ± 0.043; (0.00457 µM) 1.05 ± 0.073; (0.01372 µM) 1.06 ± 0.022; (0.04115 µM) 1.1 ± 0.04. Further, the relative viability reads like this: (0.1235 µM) 1.11 ± 0.029; (0.3704 µM) 1.11 ± 0.018; (1.111 µM) 1.08 ± 0.02; (3.333 µM) 0.93 ± 0.035; (10 µM) 0.239 ± 0.0077.

Molecule `C[C@@H]1COCCN1c1cc(-c2ccnn2C)c2ccnc(-c3ccn[nH]3)c2n1` gave a relative viability (0.00017 µM) of 1.02 ± 0.024; a relative viability (0.00051 µM) of 1.02 ± 0.03; a relative viability (0.00152 µM) of 1.01 ± 0.0075; a relative viability (0.00457 µM) of 1.05 ± 0.018; a relative viability (0.01372 µM) of 0.97 ± 0.07; a relative viability (0.04115 µM) of 0.739 ± 0.039. For the same molecule, the relative viability was 0.464 ± 0.038 (0.1235 µM); 0.212 ± 0.015 (0.3704 µM); 0.191 ± 0.0065 (1.111 µM); 0.19 ± 0.015 (3.333 µM); 0.173 ± 0.019 (10 µM).

Regarding `C[C@]1(O)C[C@@H](c2nc(-c3ccc4ccc(-c5ccccc5)nc4c3)c3c(N)nccn32)C1` [Linsitinib], the relative viability (0.00017 µM) came out at 1.08 ± 0.025; the relative viability (0.00051 µM) turned out to be 1.07 ± 0.04; the relative viability (0.00152 µM) was 1.05 ± 0.05; the relative viability (0.00457 µM) was determined as 1.06 ± 0.011; the relative viability (0.01372 µM) stood at 1.01 ± 0.02; the relative viability (0.04115 µM) stood at 0.989 ± 0.021. In addition, the relative viability was 0.987 ± 0.052 (0.1235 µM); 0.966 ± 0.042 (0.3704 µM); 0.937 ± 0.05 (1.111 µM); 0.871 ± 0.11 (3.333 µM); 0.74 ± 0.036 (10 µM).

The record behind these values is the supplement of paper PMC10883282.
